Test results taken from patent US20240317718A1, “SUBSTITUTED HETEROCYCLIC COMPOUNDS” (BRISTOL-MYERS SQUIBB COMPANY, priority 2021, published 2024).

Test system: Caco-2 cells
Conditions: human, Caco-2, 2 h, 3 μM, pH 7.4

CACO2 (A-B): 211 nm/s
Compound: [2H]C([2H])([2H])NC(=O)c1nnc(NC(=O)C2CC2)cc1Nc1cccc(-c2nc(C)ns2)c1OC [Example 13, 6-cyclopropaneamido-4-{[2-methoxy-3-(3-methyl-1,2,4-thiadiazol-5-yl)phenyl]amino}-N-(^2H3)methylpyridazine-3-carboxamide]
